Results on 26 compounds are retold here after US8557800B2, “Sphingosine kinase inhibitors” (Apogee Biotechnology Corporation, priority 2005, dated 2013).

In general, IC50 refers to the concentration needed to halve the response being measured.

The test system of one assay is recombinant human SK. In words: Inhibition of recombinant human SK, LC/MS/MS assay. The format is biochemical. The note with it: 6 μg/ml compound. An outline of the steps: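 Enzyme incubated with unlabeled sphingosine and ATP (1 mM, as in the radiometric format) for 30 min, then stopped and extracted with acetonitrile. S1P quantified by C8 reverse-phase HPLC–MS/MS against C17 sphingosine and C17 S1P internal standards using calibration curves.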

Assay [1] concerns MCF-7 human breast adenocarcinoma cells. Kind of assay: Cytotoxicity, SRB binding assay. It is filed as cell-based. The note with it: MCF7, inhibition of cell proliferation, 48 h, read-out: MCF-7 IC50. The essentials: (§1)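 Cells exposed to varying compound doses for 48 h, then survival measured by sulforhodamine B staining. IC50 is the concentration giving 50% proliferation inhibition, in μM, as mean±sd of replicate trials.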
In general terms: The SRB assay estimates cell density from bound dye.

For assay [2], the system named is MCF-10A non-transformed human breast epithelial cells. Kind of assay: Cytotoxicity, SRB binding assay. The format is cell-based. The note with it: inhibition of cell proliferation, 48 h, read-out: MCF-10A IC50. The essentials:
as §1

Consider `O=C(NCc1ccccc1)C12CC3CC(C1)CC(c1ccc(Cl)cc1)(C3)C2` [Compound 12, 3-(4-Chloro-phenyl)-adamantane-1-carboxylic acid benzylamide], for which the “Recombinant SK (% inhibition)” value with recombinant human SK is reported as 36%. In addition, the IC50 is 11 µM in assay [1] and 99 µM in assay [2].

With `O=C(NCCN1CCOCC1)C12CC3CC(C1)CC(c1ccc(Cl)cc1)(C3)C2` [Compound 58, 3-(4-Chloro-phenyl)-adamantane-1-carboxylic acid (2-morpholin-4-yl-ethyl)-amide], the “Recombinant SK (% inhibition)” value in the assay with recombinant human SK turned out to be 67%. Further, the IC50 in assay [1] is 20 µM; in assay [2] it was 36 µM.

As to `O=C(NCCc1ccc(F)cc1)C12CC3CC(C1)CC(c1ccc(Cl)cc1)(C3)C2` [Compound 38, 3-(4-Chloro-phenyl)-adamantane-1-carboxylic acid [2-(4-fluoro-phenyl)-ethyl]-amide], the “Recombinant SK (% inhibition)” value in the assay on recombinant human SK came to 40%. Moreover, the IC50 in assay [1] was 9 µM; in assay [2], 40 µM.

Take `O=C(Nc1nc(-c2ccc(Cl)cc2)cs1)C12CC3CC(CC(C3)C1)C2` [Compound 69, Adamantane-1-carboxylic acid [4-(4-chloro-phenyl)-thiazol-2-yl]-amide]: in the assay with recombinant human SK, the “Recombinant SK (% inhibition)” value amounted to 40%. Moreover, the IC50 in assay [1] stood at 30 µM; in assay [2], 106 µM.

Consider `N#CCc1ccc(NC(=O)C23CC4CC(C2)CC(c2ccc(Cl)cc2)(C4)C3)cc1` [Compound 11, 3-(4-Chloro-phenyl)-adamantane-1-carboxylic acid (4-cyanomethyl-phenyl)-amide], for which the “Recombinant SK (% inhibition)” value in the assay on recombinant human SK came to 17%. In addition, the concentration for half-maximal inhibition (IC50) in assay [1] and in assay [2] was 87 µM each time.

Regarding `O=C(NCCc1ccncc1)C12CC3CC(C1)CC(c1ccc(Cl)cc1)(C3)C2` [Compound 64, 3-(4-Chloro-phenyl)-adamantane-1-carboxylic acid (2-pyridin-4-yl-ethyl)-amide], in the assay with recombinant human SK, the “Recombinant SK (% inhibition)” value worked out at 41%. The IC50 came to 8 µM in assay [1] and 20 µM in assay [2].

On to `CN1CCN(NC(=O)C23CC4CC(C2)CC(c2ccc(Cl)cc2)(C4)C3)CC1` [Compound 52, 3-(4-Chloro-phenyl)-adamantane-1-carboxylic acid (4-methyl-piperazin-1-yl)-amide], for which the “Recombinant SK (% inhibition)” value in the assay on recombinant human SK stood at 54%. For the same compound, the IC50 in assay [1] came out at 10 µM; in assay [2] it was 15 µM.

As for `Clc1ccc(-c2cnc(NCC34CC5CC(C3)CC(c3ccc(Cl)cc3)(C5)C4)s2)cc1` [Compound 90, [3-(4-Chloro-phenyl)-adamantan-1-ylmethyl]-[5-(4-chloro-phenyl)-thiazol-2-yl]-amine], in the assay with recombinant human SK, the “Recombinant SK (% inhibition)” value turned out to be 26%. The IC50 was found to be 96 µM in assay [1] and 107 µM in assay [2].

As to `CCn1c2ccccc2c2cc(NC(=O)C34CC5CC(C3)CC(c3ccc(Cl)cc3)(C5)C4)ccc21` [Compound 68, 3-(4-Chloro-phenyl)-adamantane-1-carboxylic acid (9-ethyl-9H-carbazol-3-yl)-amide], the “Recombinant SK (% inhibition)” value with recombinant human SK turned out to be 17%. Besides, the figures for the IC50 in assay [1] and in assay [2] were 54 µM and 104 µM, respectively.

Take `O=C(NCCc1ccc(O)cc1)C12CC3CC(C1)CC(c1ccc(Cl)cc1)(C3)C2` [Compound 40, 3-(4-Chloro-phenyl)-adamantane-1-carboxylic acid [2-(4-hydroxy-phenyl)-ethyl]-amide]: in the assay on recombinant human SK, the “Recombinant SK (% inhibition)” value is given as 100%. Further, the half-maximal inhibitory concentration (IC50) came to 6 µM in assay [1] and 37 µM in assay [2].

Regarding `Cc1cc2cc(NC(=O)C34CC5CC(C3)CC(c3ccc(Cl)cc3)(C5)C4)ccc2[nH]1` [Compound 66, 3-(4-Chloro-phenyl)-adamantane-1-carboxylic acid (2-methyl-1H-indol-5-yl)-amide], the “Recombinant SK (% inhibition)” value in the assay on recombinant human SK is reported as 92%. Moreover, the IC50 in assay [1] amounted to 19 µM; in assay [2] it was 53 µM.

In the case of `CC(NC(=O)C12CC3CC(C1)CC(c1ccc(Cl)cc1)(C3)C2)c1ccc(Br)cc1` (centres unmarked) [Compound 29, 3-(4-Chloro-phenyl)-adamantane-1-carboxylic acid [1-(4-bromo-phenyl)-ethyl]-amide], the “Recombinant SK (% inhibition)” value in the assay on recombinant human SK is given as 55%. Also, the half-inhibitory concentration (IC50) in assay [1] was determined as 7 µM; in assay [2], 106 µM.

`O=C(Nc1nc(-c2ccc(Cl)cc2)cs1)C12CC3CC(C1)CC(c1ccc(Cl)cc1)(C3)C2` [Compound 70, 3-(4-Chloro-phenyl)-adamantane-1-carboxylic acid [4-(4-chloro-phenyl)-thiazol-2-yl]-amide]: in the assay with recombinant human SK, the “Recombinant SK (% inhibition)” value stood at 33%. The values for the IC50 in assay [1] and in assay [2] were 7 µM and 103 µM, respectively.

With `CC(C)(C)c1ccc(CNC(=O)C23CC4CC(C2)CC(c2ccc(Cl)cc2)(C4)C3)cc1` [Compound 13, 3-(4-Chloro-phenyl)-adamantane-1-carboxylic acid 4-tert-butyl-benzylamide], in the assay with recombinant human SK, the “Recombinant SK (% inhibition)” value came out at 78%. In addition, the IC50 in assay [1] amounted to 51 µM; in assay [2], 115 µM.

For `CCn1c2ccccc2c2cc(NC(C)C34CC5CC(CC(c6ccc(Cl)cc6)(C5)C3)C4)ccc21` (centres unmarked) [Compound 114, {1-[3-(4-Chloro-phenyl)-adamantan-1-yl]-ethyl}-(9-ethyl-9H-carbazol-3-yl)-amine], the “Recombinant SK (% inhibition)” value in the assay on recombinant human SK is given as 33%. Further, the IC50 in assay [1] was found to be 55 µM; in assay [2], 9 µM.

`O=C(Nc1cccc(CO)c1)C12CC3CC(C1)CC(c1ccc(Cl)cc1)(C3)C2` [Compound 9, 3-(4-Chloro-phenyl)-adamantane-1-carboxylic acid (3-hydroxymethyl-phenyl)-amide]: the “Recombinant SK (% inhibition)” value in the assay on recombinant human SK worked out at 84%. The IC50 in assay [1] turned out to be 9 µM; in assay [2] it was 17 µM.

As for `O=C(Nc1nc2ccccc2s1)C12CC3CC(C1)CC(c1ccc(Cl)cc1)(C3)C2` [Compound 71, 3-(4-Chloro-phenyl)-adamantane-1-carboxylic acid benzothiazol-2-ylamide], the “Recombinant SK (% inhibition)” value with recombinant human SK came to 27%. Besides, the IC50 in assay [1] was 21 µM; in assay [2] it was 118 µM.

As for `O=C(Nc1ccc(O)cc1O)C12CC3CC(C1)CC(c1ccc(Cl)cc1)(C3)C2` [Compound 8, 3-(4-Chloro-phenyl)-adamantane-1-carboxylic acid (2,4-dihydroxy-phenyl)-amide], the “Recombinant SK (% inhibition)” value in the assay on recombinant human SK was 49%. In addition, the IC50 in assay [1] worked out at 47 µM; in assay [2] it was 94 µM.

For the compound `CC(C)NC(=O)C12CC3CC(C1)CC(c1ccc(Cl)cc1)(C3)C2` [Compound 1, 3-(4-Chloro-phenyl)-adamantane-1-carboxylic acid isopropylamide], the “Recombinant SK (% inhibition)” value in the assay with recombinant human SK was 38%. Also, the IC50 was 23 µM in assay [1] and 151 µM in assay [2].

As to `O=C(Nc1nc2cc(Cl)ccc2o1)C12CC3CC(C1)CC(c1ccc(Cl)cc1)(C3)C2` [Compound 72, 3-(4-Chloro-phenyl)-adamantane-1-carboxylic acid (5-chloro-benzooxazol-2-yl)-amide], the “Recombinant SK (% inhibition)” value in the assay on recombinant human SK amounted to 14%. Moreover, the IC50 in assay [1] stood at 2 µM; in assay [2] it was 6 µM.

Turning to `O=C(Nc1ccccc1)C12CC3CC(C1)CC(c1ccc(Cl)cc1)(C3)C2` [Compound 4, 3-(4-Chloro-phenyl)-adamantane-1-carboxylic acid phenylamide], the “Recombinant SK (% inhibition)” value in the assay on recombinant human SK was 44%. In addition, the results for the IC50 in assay [1] and in assay [2] were 72 µM and 137 µM, respectively.

Regarding `O=C(Nc1ccc(O)cc1)C12CC3CC(C1)CC(c1ccc(Cl)cc1)(C3)C2` [Compound 6, 3-(4-Chloro-phenyl)-adamantane-1-carboxylic acid (4-hydroxy-phenyl)-amide], in the assay with recombinant human SK, the “Recombinant SK (% inhibition)” value turned out to be 72%. Moreover, the values for the IC50 in assay [1] and in assay [2] were 5 µM and 15 µM, respectively.

Consider `O=C(NCCc1ccc(Br)cc1)C12CC3CC(C1)CC(c1ccc(Cl)cc1)(C3)C2` [Compound 39, 3-(4-Chloro-phenyl)-adamantane-1-carboxylic acid [2-(4-bromo-phenyl)-ethyl]-amide], for which, in the assay with recombinant human SK, the “Recombinant SK (% inhibition)” value is on record as 19%. The IC50 is 15 µM in assay [1] and 106 µM in assay [2].

Take `Clc1ccc(C23CC4CC(CC(CNCCN5CCOCC5)(C4)C2)C3)cc1` [Compound 87, [3-(4-Chloro-phenyl)-adamantan-1-ylmethyl]-(2-morpholin-4-yl-ethyl)-amine]: in the assay with recombinant human SK, the “Recombinant SK (% inhibition)” value is 75%. Also, the IC50 was 38 µM in assay [1] and 33 µM in assay [2].

With `O=C(NCCc1ccccc1)C12CC3CC(C1)CC(c1ccc(Cl)cc1)(C3)C2` [Compound 37, 3-(4-Chloro-phenyl)-adamantane-1-carboxylic acid phenethyl-amide], the “Recombinant SK (% inhibition)” value in the assay on recombinant human SK was 24%. For the same compound, the IC50 in assay [1] came out at 5 µM; in assay [2], 127 µM.

`N#CCc1ccc(NC(=O)C23CC4CC(CC(C4)C2)C3)cc1` [Compound 10, Adamantane-1-carboxylic acid (4-cyanomethyl-phenyl)-amide]: the “Recombinant SK (% inhibition)” value in the assay with recombinant human SK was 3%. In addition, the IC50 in assay [2] turned out to be 170 µM.
